Four compounds from ChEMBL document CHEMBL1201862, “PubChem BioAssay data set” (2004) can be followed below.

The structures appear in SMILES notation.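 Dose response: 5 concentrations. Exposure: 48 h. Format: 96-well plates. Endpoint: linear interpolation; highest concentration if not reached. GI50 marks 50% less growth.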 The source made the active and inactive calls. Cut-off read from the data, not from the text of the source: active = GI50 up to about 1.1 µM and inactive = higher.

Some test systems named below: SR; MDA-MB-435; SF-295; IGROV-1; SF-539; LOX IMVI; SN12C; Hs-578T; NCI-H522; SNB-19; COLO 205; UACC-257; KM12; CAKI-1; Malme-3M; 786-0; A498; U-251; TK-10; OVCAR-8.
Common to all, as to experiment: NCI-60 cell line screen, 48 h

For `O=C1c2ccccc2C(=O)c2c(NC3CCCCC3)ccc(Nc3ccc(S(=O)(=O)O)cc3)c21`, the GI50 was 36.1 µM (inactive) in the test with SR; 39.1 µM (inactive) in the test with MDA-MB-435; > 100 µM (inactive) with SF-295; 32.7 µM (inactive) in the test on IGROV-1; 32.2 µM (inactive) in the test with SF-539; 32.7 µM (inactive) in the test on LOX IMVI. Moreover, the GI50 is 20.6 µM (inactive) with SN12C; > 100 µM (inactive) in the test with Hs-578T; 20.6 µM (inactive) in the test on NCI-H522; 84.5 µM (inactive) in the test with SNB-19; 20.1 µM (inactive) in the test with COLO 205; 23.9 µM (inactive) in the test with UACC-257. Also, the GI50 in the test with KM12 is 30.9 µM (inactive); in the test on CAKI-1, > 100 µM (inactive); with Malme-3M it was 23.4 µM (inactive); in the test on 786-0 it was 45.7 µM (inactive); with A498 it was > 100 µM (inactive); with U-251, 29.6 µM (inactive). For the same compound, the GI50 in the test with TK-10 is > 100 µM (inactive); in the test on OVCAR-8 it was 35.3 µM (inactive).

As to `COc1ccc(/C=C/C(=O)c2cc(CN(C)C)c(O)c(CN(C)C)c2)cc1`, the GI50 in the test with SR is 31.9 µM (inactive); in the test with MDA-MB-435, 44 µM (inactive); in the test with SF-295, 26.8 µM (inactive); in the test on IGROV-1, 37 µM (inactive); with SF-539, 45.3 µM (inactive); in the test on LOX IMVI, 14.2 µM (inactive). The GI50 was 21.9 µM (inactive) in the test on SN12C; 43.6 µM (inactive) with Hs-578T; 20.5 µM (inactive) in the test with NCI-H522; 29.9 µM (inactive) with SNB-19; 18.4 µM (inactive) in the test on COLO 205; 16.5 µM (inactive) in the test on UACC-257. Further, the GI50 with KM12 is 17.7 µM (inactive); in the test on CAKI-1, 47.5 µM (inactive); with Malme-3M, 25.2 µM (inactive); with 786-0, 74 µM (inactive); in the test on A498, 19.7 µM (inactive); in the test with U-251, 48.1 µM (inactive). The GI50 in the test on TK-10 is 40.6 µM (inactive); in the test with OVCAR-8 it was 29.8 µM (inactive).

On to `COc1cc(S(=O)(=O)Nc2ccc(-c3csc(N4C(=O)C(Cl)C4c4ccccc4O)n3)cc2)ccc1Cl` (configuration not stated), for which the GI50 with SR was 4.82 µM (inactive); in the test with MDA-MB-435, 31.4 µM (inactive); in the test with SF-295, > 100 µM (inactive); in the test on IGROV-1, 11.9 µM (inactive); in the test on SF-539, 30.5 µM (inactive); in the test with LOX IMVI it was 1.49 µM (inactive). The GI50 is 33.1 µM (inactive) with SN12C; 0.748 µM (active) with Hs-578T; 1.51 µM (inactive) in the test with NCI-H522; > 100 µM (inactive) in the test with SNB-19; 23.9 µM (inactive) in the test with COLO 205; 29.1 µM (inactive) with UACC-257. Besides, the GI50 with KM12 is 33 µM (inactive); with CAKI-1 it was > 100 µM (inactive); with Malme-3M, 24.1 µM (inactive); with 786-0, 35.1 µM (inactive); in the test with A498, 0.454 µM (active); in the test on OVCAR-8 it was 53.6 µM (inactive).

In the case of `C/C(=N\NC(=S)Nc1ccccc1)c1nc2cccnc2[nH]1`, the GI50 in the test with SR is 0.766 µM (active); in the test on MDA-MB-435, 3.7 µM (inactive); in the test on SF-295, 3.46 µM (inactive); in the test with IGROV-1, 3.48 µM (inactive); with SF-539, 1.46 µM (inactive); in the test on LOX IMVI, 2.31 µM (inactive). In addition, the GI50 in the test on SN12C is 4.33 µM (inactive); in the test on Hs-578T, 14 µM (inactive); in the test on NCI-H522, 2.18 µM (inactive); in the test with SNB-19 it was 5.96 µM (inactive); with COLO 205 it was 3.78 µM (inactive); with UACC-257, 2.18 µM (inactive). For the same compound, the GI50 was 7.08 µM (inactive) with KM12; 4.63 µM (inactive) with CAKI-1; 2.18 µM (inactive) in the test with Malme-3M; 2.54 µM (inactive) in the test on 786-0; 8.17 µM (inactive) in the test on A498; 2.49 µM (inactive) with U-251. Further, the GI50 in the test on OVCAR-8 is 2.76 µM (inactive).
